Results: paper PMC6222843, “Reversal Effect of Oxypeucedanin on P-glycoprotein-mediated Drug Transport” (Molecules : A Journal of Synthetic Chemistry and Natural …, 2018)
Counter-ions that a name gives are not always drawn. Like-named read-outs stand apart in the source and are kept apart here. One block for each compound: values may come before it.

Legend:
MDCK-MDR1 cells = experiment: MTT assay, viability of MDCK-MDR1 cells; format: cell-based, canine
Procedure: The effects of OPD and VCR on the viability of MDCK-MDR1 cells were observed by a MTT assay.
MDCK-MDR1 Cells were obtained from Shanghai Zhongya Institute of Biological Genes Institute (CinoAsia Co., Ltd., Shanghai, China). Cells were cultured as previously described. In brief, cells were cultured in high glucose DMEM medium supplemented with 10% fetal bovine serum (FBS), 1% non-essential amino acids, 1% L-glutamine, and a penicillin-streptomycin double antibiotic solution. Cells were incubated at 37 °C with 5% CO2 and cell medium was changed every other day.

[1] = Transport of VCR across MDCK-MDR1 cell monolayer (A→B); format: in vitro ADME, canine; settings: dog, MDCK-MDR1, pH 7.4, VCR 264.46 μmol/L alone, 37 °C, n = 3
Procedure: Briefly, cell monolayers were pre-incubated in Hank’s buffered salt solution (HBSS, pH 7.4) for 30 min at 37 °C. Trans-epithelial electric resistance (TEER) values of the MDCK-MDR1 cell monolayer ranged from 500 to 800 Ω·cm^2. All drugs were dissolved in DMSO and diluted in HBSS. The final concentration of DMSO is less than 1%. […] After treatments, cells were incubated at 37 °C for 2 h. After 2 h, 500 µL aliquots were taken from the basal side, mixed with 500 µL methanol, vortexed 2 min and then centrifuged for 10 min at 16,000 rpm. The supernatants were collected to measure the concentrations of compounds by high performance liquid-chromatography/mass spectroscopy (LC-MS/MS). Apparent permeability (Papp) values are calculated from the relationship: Papp=dQ/dt/A×C0 where dQ/dt is the cumulative transport rate of the compound on the receiving side (µg/s), A is the surface area of the cell monolayer (cm^2), and C0 is the initial concentration in the donor compartment (µg/mL).

P-gp = experiment: Western blotting of P-gp protein expression in MDCK-MDR1 cells; format: cell-based, canine; settings: OPD 17.5 and 70 μmol/L for 48 h, in comparison with control group
Procedure: MDCK-MDR1 cells treated with different concentrations of OPD (3.5, 17.5 and 70 μmol/L) for 48 h were subject to western blotting for determination of P-gp protein level. Cells were washed 3 times with PBS. Total protein was extracted and the protein concentrations were measured according to the manufacturer’s instructions. Cell protein were denatured at 70 °C for 10 min. Protein samples with equivalent amounts were loaded and separated by 10% SDS-polyacrylamide gel electrophoresis and transferred to a polyvinylidene difluoride membranes. Membranes were blocked in 5% powdered non-fat milk solution for 4 h at room temperature and incubated with anti-P-gp primary antibody (GADPH was used as a loading control) overnight at 4 °C followed by an goat anti-mouse IgG secondary antibody (1:5000 dilutions) for 4 h at room temperature. Membranes were incubated with an ECL chromogenic solution for 4 min in the dark. The target protein bands were detected and protein intensity was calculated by a gel imaging system (Beta 3, Bio-Rad, Irvine, CA, USA).

MDR1 = experiment: RT-qPCR of MDR1 mRNA expression in MDCK-MDR1 cells; format: cell-based, human; settings: OPD 3.5, 17.5 and 70 μmol/L for 48 h, compared to untreated cells
Procedure: MDCK-MDR1 cells were cultured for 5 days and treated with different concentrations of OPD (3.5, 17.5 and 70 μmol/L) for 48 h to measure MDR1 gene expression level. The total celluar RNA was extracted by the RNA easy Total RNA mini kit and reverse transcribed to cDNA with reverse transcription kit according to the manufacturer’s protocol. PCR primer design and synthesis were performed by the primer design software provided by Applied Biosystems. Primer sequences for MDR1 and hRpIPIv-F (loading internal control) genes are as follows: human hRpIP1v-F forward, 5′-[…]-3′; human hRpIP1v-F reverse, 5′-[…]-3′; human MDR1 forward, 5′-[…]-3′, human MDR1 reverse, 5′-[…]-3′. PCR amplification was performed using Power SYBR Green PCR Mix according to the manufacturer’s protocol (Life Technologies, Carlsbad, CA, USA).

[2] = target: recombinant human P-gp membranes (Homo sapiens, UniProt P08183); settings: compared to basal P-gp ATPase activity
Sequence of recombinant human P-gp membranes (P08183 whole entry): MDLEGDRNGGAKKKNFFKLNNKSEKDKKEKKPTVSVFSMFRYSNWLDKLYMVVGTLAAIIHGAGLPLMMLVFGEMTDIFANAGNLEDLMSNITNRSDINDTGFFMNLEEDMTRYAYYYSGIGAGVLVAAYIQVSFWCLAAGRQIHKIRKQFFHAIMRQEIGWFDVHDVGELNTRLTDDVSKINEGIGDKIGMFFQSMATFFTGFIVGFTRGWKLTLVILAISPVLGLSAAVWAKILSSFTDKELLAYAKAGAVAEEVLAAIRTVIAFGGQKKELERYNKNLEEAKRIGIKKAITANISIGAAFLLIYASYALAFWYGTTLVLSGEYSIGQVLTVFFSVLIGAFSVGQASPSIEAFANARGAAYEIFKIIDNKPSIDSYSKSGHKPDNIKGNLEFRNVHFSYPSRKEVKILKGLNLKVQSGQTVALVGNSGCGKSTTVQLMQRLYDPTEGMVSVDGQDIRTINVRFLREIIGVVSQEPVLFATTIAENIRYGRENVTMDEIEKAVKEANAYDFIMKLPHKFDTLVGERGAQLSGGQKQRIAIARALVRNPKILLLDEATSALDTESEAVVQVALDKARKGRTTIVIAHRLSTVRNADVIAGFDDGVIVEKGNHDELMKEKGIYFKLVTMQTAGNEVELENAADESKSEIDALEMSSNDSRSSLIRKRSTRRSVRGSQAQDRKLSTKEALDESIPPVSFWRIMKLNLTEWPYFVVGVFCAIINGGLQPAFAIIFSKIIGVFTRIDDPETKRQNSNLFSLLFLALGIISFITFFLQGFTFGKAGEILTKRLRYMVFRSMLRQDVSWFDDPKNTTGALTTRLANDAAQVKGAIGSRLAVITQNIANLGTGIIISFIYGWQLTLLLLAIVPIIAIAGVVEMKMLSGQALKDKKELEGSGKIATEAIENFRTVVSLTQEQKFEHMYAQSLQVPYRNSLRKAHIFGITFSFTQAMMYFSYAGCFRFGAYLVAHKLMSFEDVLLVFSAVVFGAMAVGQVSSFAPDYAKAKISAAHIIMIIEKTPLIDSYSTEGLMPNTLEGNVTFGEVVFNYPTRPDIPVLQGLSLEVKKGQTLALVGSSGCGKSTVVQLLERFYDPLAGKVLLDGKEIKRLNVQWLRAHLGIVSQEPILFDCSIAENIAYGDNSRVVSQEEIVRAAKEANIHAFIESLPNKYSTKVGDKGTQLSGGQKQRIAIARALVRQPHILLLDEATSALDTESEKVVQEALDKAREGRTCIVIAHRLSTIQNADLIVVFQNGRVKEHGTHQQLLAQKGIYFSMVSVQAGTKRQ
Procedure: P-gp ATPase activity was measured using P-gp-Glo™ assay systems kit according to the manufacturer’s instructions, the method detail of which was also described in our previous study [29]. […] After 40 min, ATP detection reagent was added, respectively. The unconsumed ATP detection reagent reacted with luciferase at room temperature for 20 min and the chemiluminescence intensity was detected. The average relative light units (RLU) was calculated as follows:RLUNa3VO4 − RLUNT = ΔRLUbasal(1) RLUNa3VO4 − RLUTC = ΔRLUTC(2)
ΔRLUbasal, the decrease in luminescence of the untreated group (RLUNT) compared to the Na3VO4 group (RLUNa3VO4), represents the basal P-gp ATPase activity. ΔRLUTC, the decrease in luminescence of the test compound-treated group (RLUTC) compared to the Na3VO4 group (RLUNa3VO4), indicates the P-gp ATPase activity in the presence of the test compound. The decrease in luminescence reflect ATP consumption by P-gp and is proportional to P-gp activity.

[3] = Plasma pharmacokinetics of DTX in rats with or without OPD (LC-MS/MS); settings: male, Sprague-Dawley, rat, po, 50 mg/kg
Procedure: Ten 8-week-old male Sprague-Dawley rats were randomly divided into the following two groups (5 rats in each group). Group 1: rats were administered a single oral dose of 50 mg/kg of DTX dissolved in 0.5% CMC-Na. […] Blood samples were centrifuged for 10 min at approximately 4000 rpm. 100 µL of plasma was collected from the upper layer, and mixed with 20 µL of taxol internal standard solution for 30 s followed by 500 µL of methanol for 3 min, then centrifuged at 15,000 rpm for 10 min. The supernatant was separated and collected. 5 μL of the supernatant was injected into the LC-MS/MS system for detection and quantification.
Separation was performed on a ZORBAX Extend-C18 (2.1 × 100 mm, 3.5 µm, Agilent, Palo Alto, CA, USA). The column oven was maintained at 25 °C.

Papp A→B at 2 h, 264.46 μmol/L [1]: 0.37 ± 0.04 ×10⁻⁶ cm/s
SMILES: CC[C@]1(O)C[C@H]2CN(CCc3c([nH]c4ccccc34)[C@@](C(=O)OC)(c3cc4c(cc3OC)N(C=O)[C@H]3[C@@](O)(C(=O)OC)[C@H](OC(C)=O)[C@]5(CC)C=CCN6CC[C@]43[C@@H]65)C2)C1 [VCR, Vincristine sulfate]
cytotoxicity (viability of MDCK-MDR1 cells, MTT assay) (MDCK-MDR1 cells; VCR 264.46 μmol/L): no obvious cytotoxicity

increase in P-gp ATPase activity ([2]; OPD 3.5 μmol/L): 0.55 fold
increase in P-gp ATPase activity ([2]; OPD 17.5 μmol/L): 0.31 fold
increase in P-gp ATPase activity ([2]; OPD 70 μmol/L): 0.50 fold
SMILES: CC1(C)O[C@H]1COc1c2ccoc2cc2oc(=O)ccc12 [OPD, Oxypeucedanin]
cytotoxicity (viability of MDCK-MDR1 cells, MTT assay) (MDCK-MDR1 cells; OPD 3.82, 19.08, 76.30 μmol/L): no obvious cytotoxicity
P-gp protein expression (P-gp): obvious reduction
mRNA expression of MDR1 (MDR1): significantly downregulated

AUC(0-inf) [3]: 306 ± 21.1 ng·h/mL
AUC(0-t) [3]: 276 ± 19.1 ng·h/mL
Cmax [3]: 118 ± 10.9 ng/mL
MRT inf [3]: 4.29 ± 0.98 h
MRT last [3]: 2.96 ± 0.22 h
half-life [3]: 4.13 ± 1.08 h
SMILES: CC(=O)O[C@@]12CO[C@@H]1C[C@H](O)[C@@]1(C)C(=O)[C@H](O)C3=C(C)[C@@H](OC(=O)[C@H](O)[C@@H](NC(=O)OC(C)(C)C)c4ccccc4)C[C@@](O)([C@@H](OC(=O)c4ccccc4)[C@H]21)C3(C)C [DTX, Docetaxel]
